Results from ChEMBL document CHEMBL1799932, “Antimalarial pyrido[1,2-a]benzimidazoles” (J Med Chem, 2011).

Assays:
Plasmodium berghei [1] = experiment: Antimalarial activity against GFP-transfected Plasmodium berghei strain ANKA infected in NMRI mouse assessed as reduction in parasitemia at 50 mg/kg, po administered as single dose measured on day 2 by FACS analysis; assay type: functional; design: scale not given: the % may be the effect or the level left
Plasmodium berghei [2] = experiment: Antimalarial activity against GFP-transfected Plasmodium berghei strain ANKA infected in NMRI mouse assessed as reduction in parasitemia at 50 mg/kg/day, ip administered for 4 consecutive days measured 24 hrs after last treatment by FACS analysis relative to control; assay type: functional; design: scale not given: the % may be the effect or the level left; conditions: route intraperitoneal
Rattus norvegicus [3] = experiment: Cmax in fasted Sprague-Dawley rat assessed as 1-(2-Ethylaminoethylamino)-3-[4-(trifluoromethyl)phenyl]- pyrido[1,2-a]benzimidazole-4-carbonitrile level at 5 mg/kg, iv after 48 hrs by LC-MS analysis; assay type: ADME, organism-based; design: dose 5 mg/kg, route intravenous; conditions: in vivo
Rattus norvegicus [4] = experiment: AUC (0 to tlast) in fasted Sprague-Dawley rat assessed as 1-(2-Ethylaminoethylamino)-3-[4-(trifluoromethyl)phenyl]- pyrido[1,2-a]benzimidazole-4-carbonitrile level at 20 mg/kg, po after 48 hrs by LC-MS analysis; assay type: ADME, organism-based, Plasma; design: time < 48 hr, dose 20 mg/kg, route oral; conditions: in vivo
Rattus norvegicus [5] = experiment: Cmax in fasted Sprague-Dawley rat assessed as 1-(2-Ethylaminoethylamino)-3-[4-(trifluoromethyl)phenyl]- pyrido[1,2-a]benzimidazole-4-carbonitrile level at 20 mg/kg, po after 48 hrs by LC-MS analysis; assay type: ADME, organism-based; design: dose 20 mg/kg, route oral; conditions: in vivo
Plasmodium berghei [6] = experiment: Antimalarial activity against GFP-transfected Plasmodium berghei strain ANKA infected in NMRI mouse assessed as reduction in parasitemia at 100 mg/kg/day, po administered for 4 consecutive days measured 24 hrs after last treatment by FACS analysis relative to control; assay type: functional; design: scale not given: the % may be the effect or the level left
Plasmodium berghei [7] = experiment: Antimalarial activity against GFP-transfected Plasmodium berghei strain ANKA infected in NMRI mouse assessed as reduction in parasitemia at 25 mg/kg, po administered as single dose measured on day 3 by FACS analysis; assay type: functional; design: scale not given: the % may be the effect or the level left
Plasmodium berghei [8] = experiment: Antimalarial activity against GFP-transfected Plasmodium berghei strain ANKA infected in NMRI mouse assessed as reduction in parasitemia at 25 mg/kg, po administered as single dose measured on day 5 by FACS analysis; assay type: functional; design: scale not given: the % may be the effect or the level left
Rattus norvegicus [9] = experiment: Drug excretion in fasted Sprague-Dawley rat urine assessed as 1-(2-Ethylaminoethylamino)-3-[4-(trifluoromethyl)phenyl]- pyrido[1,2-a]benzimidazole-4-carbonitrile level at 5 mg/kg, iv after 48 hrs by LC-MS analysis; assay type: ADME, organism-based; design: dose 5 mg/kg, route intravenous; conditions: in vivo
Plasmodium berghei [10] = experiment: Antimalarial activity against GFP-transfected Plasmodium berghei strain ANKA infected in NMRI mouse assessed as increase in mean survival time at 25 mg/kg, po administered as single dose (reference value: 5 days )

CCN(CC)CCNc1cc(-c2ccc(C(F)(F)F)cc2)c(C#N)c2nc3ccccc3n12.Cl.Cl
Activity (Plasmodium berghei [1]): 5.15%
Activity (Plasmodium berghei [2]): 91.9%
Cmax (Rattus norvegicus [3]): 540 nM
AUClast (Rattus norvegicus [4]): 1032 µM·min
Cmax (Rattus norvegicus [5]): 920 nM
Activity (Plasmodium berghei [6]): 96.2%
Activity (Plasmodium berghei [7]): 24.38%
Activity (Plasmodium berghei [8]): 70.33%
Activity (Rattus norvegicus [9]): 0.08%
MSD (Plasmodium berghei [10]): 8 days
